Laboratory results taken from ChEMBL document CHEMBL3885861, “Open TG-GATES”.

Species: Rattus norvegicus
Assay: Open TG-GATES - Regimen: Daily Repeat
Format: toxicity, organism-based, Sprague-Dawley
Set-up: regimen Daily Repeat, gender Male, age 6 weeks
Settings: in vivo, po, 300 mg/kg, route gavage, dose level High; for APTT / Bas / Eos / Fbg / Hb / Ht / Lym / MCH / MCHC / MCV / Mono / Neu / PT / Plat / RBC / Ret / WBC: tissue Blood; for KIDNEY_L / KIDNEY_R / KIDNEY_TOTAL: tissue Kidney; for LIVER: tissue Liver; for A/G / ALP / ALT / AST / BUN / CRE / Ca / Cl / DBIL / GLC / IP / K / LDH / Na / PL / RALB / TBIL / TC / TG / TP / gamma-GTP: tissue Plasma

CC[C@H]1[C@@H]2C[C@H]3[C@@H]4N(C)c5ccccc5[C@]45C[C@@H]([C@@H]2[C@H]5O)N3[C@@H]1O [AJMALINE]
TERMINAL_BW (72 h, time 3 day): 209.6 g
APTT (72 h, time 3 day): 16.2 s
Bas (72 h, time 3 day): 0%
Eos (72 h, time 3 day): 1%
Fbg (72 h, time 3 day): 214 mg/dL
Hb (72 h, time 3 day): 12.9 g/dL
Ht (72 h, time 3 day): 39.7%
Lym (72 h, time 3 day): 82.8%
MCH (72 h, time 3 day): 20.9 pg
MCHC (72 h, time 3 day): 32.4%
MCV (72 h, time 3 day): 64.4 fL
Mono (72 h, time 3 day): 7.2%
Neu (72 h, time 3 day): 9.6%
PT (72 h, time 3 day): 11.6 s
Plat (72 h, time 3 day): 121.1 x10_4/uL
RBC (72 h, time 3 day): 616.8 x10_4/ul
Ret (72 h, time 3 day): 7.8%
WBC (72 h, time 3 day): 133 x10_2/uL
KIDNEY_L (72 h, time 3 day): 0.9 g
KIDNEY_R (72 h, time 3 day): 0.9 g
KIDNEY_TOTAL (72 h, time 3 day): 1.9 g
LIVER (72 h, time 3 day): 10.3 g
A/G (72 h, time 3 day): 2
ALP (72 h, time 3 day): 989.6 IU/L
ALT (72 h, time 3 day): 44.2 IU/L
AST (72 h, time 3 day): 68.2 IU/L
BUN (72 h, time 3 day): 17 mg/dL
CRE (72 h, time 3 day): 0.5 mg/dL
Ca (72 h, time 3 day): 11.5 mg/dL
Cl (72 h, time 3 day): 100.4 meq/L
DBIL (72 h, time 3 day): 0.034 mg/dL
GLC (72 h, time 3 day): 200 mg/dL
IP (72 h, time 3 day): 8.3 mg/dL
K (72 h, time 3 day): 4.4 meq/L
LDH (72 h, time 3 day): 123.2 IU/L
Na (72 h, time 3 day): 138.8 meq/L
PL (72 h, time 3 day): 150 mg/dL
RALB (72 h, time 3 day): 3.6 g/dL
TBIL (72 h, time 3 day): 0.3 mg/dL
TC (72 h, time 3 day): 87.6 mg/dL
TG (72 h, time 3 day): 57.2 mg/dL
TP (72 h, time 3 day): 5.4 g/dL
gamma-GTP (72 h, time 3 day): 0.8 IU/L
TERMINAL_BW ([…], time 7 day): 244.7 g
TERMINAL_BW ([…], time 14 day): 293.9 g
TERMINAL_BW ([…], time 28 day): 349.6 g
APTT ([…], time 7 day): 16.4 s
Bas ([…], time 7 day): 0%
Eos ([…], time 7 day): 0.8%
Fbg ([…], time 7 day): 225.6 mg/dL
Hb ([…], time 7 day): 13.2 g/dL
Ht ([…], time 7 day): 39.9%
Lym ([…], time 7 day): 81%
MCH ([…], time 7 day): 21.1 pg
MCHC ([…], time 7 day): 33.1%
MCV ([…], time 7 day): 63.6 fL
Mono ([…], time 7 day): 4.4%
Neu ([…], time 7 day): 13.4%
PT ([…], time 7 day): 11.3 s
Plat ([…], time 7 day): 142.3 x10_4/uL
RBC ([…], time 7 day): 627.2 x10_4/ul
Ret ([…], time 7 day): 7%
WBC ([…], time 7 day): 118.8 x10_2/uL
APTT ([…], time 14 day): 16.3 s
Bas ([…], time 14 day): 0%
Eos ([…], time 14 day): 1%
Fbg ([…], time 14 day): 234.8 mg/dL
Hb ([…], time 14 day): 13.9 g/dL
Ht ([…], time 14 day): 42%
Lym ([…], time 14 day): 83.2%
MCH ([…], time 14 day): 20.8 pg
MCHC ([…], time 14 day): 33.1%
MCV ([…], time 14 day): 62.7 fL
Mono ([…], time 14 day): 4.2%
Neu ([…], time 14 day): 11.8%
PT ([…], time 14 day): 11.2 s
Plat ([…], time 14 day): 140.6 x10_4/uL
RBC ([…], time 14 day): 670 x10_4/ul
Ret ([…], time 14 day): 5.6%
WBC ([…], time 14 day): 139.9 x10_2/uL
APTT ([…], time 28 day): 17.3 s
Bas ([…], time 28 day): 0%
Eos ([…], time 28 day): 1.2%
Fbg ([…], time 28 day): 244.2 mg/dL
Hb ([…], time 28 day): 15.3 g/dL
Ht ([…], time 28 day): 45.1%
Lym ([…], time 28 day): 80.8%
MCH ([…], time 28 day): 19.8 pg
MCHC ([…], time 28 day): 33.9%
MCV ([…], time 28 day): 58.3 fL
Mono ([…], time 28 day): 5%
Neu ([…], time 28 day): 13.4%
PT ([…], time 28 day): 11.3 s
Plat ([…], time 28 day): 141.8 x10_4/uL
RBC ([…], time 28 day): 772.4 x10_4/ul
Ret ([…], time 28 day): 2.8%
WBC ([…], time 28 day): 147.5 x10_2/uL
KIDNEY_L ([…], time 7 day): 1.1 g
KIDNEY_R ([…], time 7 day): 1.1 g
KIDNEY_TOTAL ([…], time 7 day): 2.2 g
KIDNEY_L ([…], time 14 day): 1.2 g
KIDNEY_R ([…], time 14 day): 1.2 g
KIDNEY_TOTAL ([…], time 14 day): 2.4 g
KIDNEY_L ([…], time 28 day): 1.3 g
KIDNEY_R ([…], time 28 day): 1.4 g
KIDNEY_TOTAL ([…], time 28 day): 2.7 g
LIVER ([…], time 7 day): 11.7 g
LIVER ([…], time 14 day): 13.4 g
LIVER ([…], time 28 day): 15.4 g
A/G ([…], time 7 day): 1.9
ALP ([…], time 7 day): 944.4 IU/L
ALT ([…], time 7 day): 37 IU/L
AST ([…], time 7 day): 57.8 IU/L
BUN ([…], time 7 day): 16.8 mg/dL
CRE ([…], time 7 day): 0.5 mg/dL
Ca ([…], time 7 day): 11.6 mg/dL
Cl ([…], time 7 day): 103 meq/L
DBIL ([…], time 7 day): 0.026 mg/dL
GLC ([…], time 7 day): 189.8 mg/dL
IP ([…], time 7 day): 8.3 mg/dL
K ([…], time 7 day): 4.6 meq/L
LDH ([…], time 7 day): 98.8 IU/L
Na ([…], time 7 day): 141.4 meq/L
PL ([…], time 7 day): 142 mg/dL
RALB ([…], time 7 day): 3.5 g/dL
TBIL ([…], time 7 day): 0.4 mg/dL
TC ([…], time 7 day): 80.8 mg/dL
TG ([…], time 7 day): 56.8 mg/dL
TP ([…], time 7 day): 5.4 g/dL
gamma-GTP ([…], time 7 day): 1.2 IU/L
A/G ([…], time 14 day): 2.1
ALP ([…], time 14 day): 849.4 IU/L
ALT ([…], time 14 day): 35.4 IU/L
AST ([…], time 14 day): 62.2 IU/L
BUN ([…], time 14 day): 17.8 mg/dL
CRE ([…], time 14 day): 0.5 mg/dL
Ca ([…], time 14 day): 11.4 mg/dL
Cl ([…], time 14 day): 102.6 meq/L
DBIL ([…], time 14 day): 0.022 mg/dL
GLC ([…], time 14 day): 201.8 mg/dL
IP ([…], time 14 day): 8.2 mg/dL
K ([…], time 14 day): 4.8 meq/L
LDH ([…], time 14 day): 101.8 IU/L
Na ([…], time 14 day): 140 meq/L
PL ([…], time 14 day): 142.4 mg/dL
RALB ([…], time 14 day): 3.7 g/dL
TBIL ([…], time 14 day): 0.5 mg/dL
TC ([…], time 14 day): 73.6 mg/dL
TG ([…], time 14 day): 82 mg/dL
TP ([…], time 14 day): 5.5 g/dL
gamma-GTP ([…], time 14 day): 1.6 IU/L
A/G ([…], time 28 day): 1.8
ALP ([…], time 28 day): 589.2 IU/L
ALT ([…], time 28 day): 38.4 IU/L
AST ([…], time 28 day): 61.8 IU/L
BUN ([…], time 28 day): 19 mg/dL
CRE ([…], time 28 day): 0.7 mg/dL
Ca ([…], time 28 day): 11 mg/dL
Cl ([…], time 28 day): 103.2 meq/L
DBIL ([…], time 28 day): 0.036 mg/dL
GLC ([…], time 28 day): 187.2 mg/dL
IP ([…], time 28 day): 7.3 mg/dL
K ([…], time 28 day): 4.8 meq/L
LDH ([…], time 28 day): 88.4 IU/L
Na ([…], time 28 day): 140.8 meq/L
PL ([…], time 28 day): 172.8 mg/dL
RALB ([…], time 28 day): 3.9 g/dL
TBIL ([…], time 28 day): 0.3 mg/dL
TC ([…], time 28 day): 96.8 mg/dL
TG ([…], time 28 day): 73.6 mg/dL
TP ([…], time 28 day): 6.1 g/dL
gamma-GTP ([…], time 28 day): 1.4 IU/L
